According to ChEMBL document CHEMBL1123053, “Analogues of platelet activating factor. 3. Replacement of the phosphate moiety with a sulfonylbismethylene group” (1985):

How the values were obtained:
Format in all cases: functional
Rattus norvegicus [1] = assay: Effect on mean arterial blood pressure in SHR rat at the dose of 10 mg/kg i.v.; settings: route intravenous
Oryctolagus cuniculus = organism: Oryctolagus cuniculus; assay: Compound did not aggregate rabbit platelet at concentration of 1.8E-5 M
Rattus norvegicus [2] = assay: Effect on mean arterial blood pressure in SHR rat at the dose of 0.3 mg/kg i.v.; settings: route intravenous

CCCCCCCCCCCCCCCCOCC(CCS(=O)(=O)CCC[N+](C)(C)C)OC(C)=O.[Cl-] (stereo not drawn)
Blood pressure (Rattus norvegicus [1]): 20 mmHg

CCCCCCCCCCCCCCCCOCC(COP(=O)([O-])OCC[N+](C)(C)C)OC(C)=O (stereo not drawn) [PLATELET ACTIVATING FACTOR]
Activity (Oryctolagus cuniculus): Did not aggregate rabbit platelet at concentration of 1.8E-5 M
Blood pressure (Rattus norvegicus [2]): 20 mmHg
